One assay concerns KB-V1 (MDR1++). Kind of assay: Cell survival assay (SRB), KB-V1 (MDR1++). As to conditions: for IC50: Homo sapiens.
The next assay deals with KB-3-1. Kind of assay: Cell survival assay (SRB), KB-3-1. As to conditions: Homo sapiens, KB 3-1, KB-3-1 cells (paclitaxel-sensitive parent); read-out: In vitro IC50 (nM) KB-3-1. It counts as cell-based, human. Put shortly:
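Cells were exposed to serially diluted compound in duplicate for 3 days. Survival was read as protein content by SRB (TCA fixation 1 hr at 4 °C, 0.04% SRB stain, dissolved in 10 mM Tris, absorbance). KB-3-1 was grown in 20% FCS. IC50 is the concentration giving 50% growth inhibition.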

A further assay relates to KB-8-5 (MDR1+). Kind of assay: Cell survival assay (SRB), KB-8-5 (MDR1+). As to conditions: for IC50: Homo sapiens, MDR1, read-out: In vitro IC50 (nM) KB85.
The mark [1] stands for this setting: read-out: In vitro IC50 (nM) KBV1.

Where two headings read alike, the source gives them in different places.

The IC50 is the midpoint of a concentration-inhibition curve.

On to `CCOC(=O)/C(C)=C/[C@H](C(C)C)N(C)C(=O)[C@@H](NC(=O)C(NC)C(C)(C)c1csc2ccccc12)C(C)(C)C` (stereo partly drawn) [Example 25, 3-(1-Benzothien-3-yl)-N-methylvalyl-N^1-[(l S,2E)-4-ethoxy-1-isopropyl-3-methyl4-oxo-2-butenyl]-N^1,3-dimethyl-L-valinamide], for which the “Ratio KBV1/KB” value with KB-V1 (MDR1++) was determined as 6.2. Also, the results for the IC50 in the assay on KB-V1 (MDR1++) (setting [1]), in the assay with KB-3-1 and with KB-8-5 (MDR1+) were 2950 nM, 479 nM and 1510 nM, respectively. The “Ratio KB85/KB” value in the assay on KB-8-5 (MDR1+) is listed as 3.2.
The like results for `CN[C@H](C(=O)N[C@H](C(=O)N(C)[C@H](/C=C(\C)C(=O)O)C(C)C)C(C)(C)S(C)(=O)=O)C(C)(C)c1ccccc1` [Example 81, N,β,β-trimethyl-L-phenylalanyl-N^1-[(1S,2E)-3-carboxy-1-isopropyl-2-butenyl]-N^1-methyl-3-(methylsulfonyl)-L-valinamide] were, in that order, 16.9, not below 3000 nM, 178 nM, 589 nM and 3.3.
Taken in the same sequence, the figures for `CN[C@H](C(=O)N[C@H](C(=O)N(C)[C@H](/C=C(\C)C(=O)O)C(C)C)C(C)(C)C)C(C)(C)c1c[nH]c2ccccc12` [Example 141, N,β,β-trimethyl-L-tryptophyl-N^1-[(1S,2E)-3-carboxy-1-isopropyl-2-butenyl]-N^1,3-dimethyl-L-valinamide] were 139.4, 96.9 nM, 0.695 nM, 1.65 nM and 2.4.
Taken in the same sequence, the figures for `CN[C@@H](C(=O)N[C@H](C(=O)N(C)[C@H](/C=C(\C)C(=O)O)C(C)C)C(C)(C)C)C(C)(C)c1cc(C)cc(C)c1` [Example 18, N,β,β,3,5-Pentamethyl-D-phenylalanyl-N^1-[(1S,2E)-3-carboxy-1-isopropyl-2-butenyl]-N^1,3-dimethyl-L-valinamide] were 79.9, 575 nM, 7.2 nM, 17.4 nM and 2.4.
On to `CN[C@H](C(=O)N[C@H](C(=O)N(C)[C@H](/C=C(\C)C(=O)O)C(C)C)C(C)(C)C)C(C)(C)c1cc(F)cc(F)c1` [Example 64, 3,5-Difluoro-N,β,β-trimethyl-L-phenylalanyl-N^1-[(1S,2E)-3-carboxy-1-isopropylbut-2-enyl]-N^1,3-dimethyl-L-valinamide], for which, in the assay with KB-V1 (MDR1++), the “Ratio KBV1/KB” value is listed as 73.7. Moreover, the results for the IC50 in the assay with KB-V1 (MDR1++) (setting [1]), with KB-3-1 and with KB-8-5 (MDR1+) were 457 nM, 6.2 nM and 16.2 nM, respectively. Also, the “Ratio KB85/KB” value in the assay with KB-8-5 (MDR1+) stood at 2.6.
As for `CN[C@@H](C(=O)N[C@H](C(=O)N(C)[C@H](/C=C(\C)C(=O)O)C(C)C)C(C)(C)C)C(C)(C)c1ccccc1C` [Example 36, N,β,β,2-Tetramethyl-D-phenylalanyl-N^1-[(1S,2E)-3-carboxy-1-isopropyl-2-butenyl]-N^1,3-dimethyl-L-valinamide], in the assay on KB-V1 (MDR1++), the “Ratio KBV1/KB” value is given as 83.5. Moreover, the concentration for half-maximal inhibition (IC50) was 501 nM in the assay with KB-V1 (MDR1++) (setting [1]), 6 nM in the assay on KB-3-1 and 13.8 nM with KB-8-5 (MDR1+). Besides, the “Ratio KB85/KB” value with KB-8-5 (MDR1+) was determined as 2.3.
On to `CN[C@H](C(=O)N[C@H](C(=O)N(C)[C@H](/C=C(\C)C(=O)O)C(C)C)C(C)(C)O)C(C)(C)c1ccccc1` [Example 156, N,β,β-trimethyl-L-phenylalanyl-N^1-[(1S,2E)-3-carboxy-1-isopropylbut-2-enyl]-3-hydroxy-N^1-methyl-L-valinamide], for which, in the assay on KB-V1 (MDR1++), the “Ratio KBV1/KB” value is on record as 51.7. For the same compound, the IC50 with KB-V1 (MDR1++) (setting [1]) was more than 3000 nM; in the assay on KB-3-1 it was 58 nM; in the assay with KB-8-5 (MDR1+) it was 95 nM. Further, the “Ratio KB85/KB” value with KB-8-5 (MDR1+) is reported as 1.6.
The like results for `CN[C@@H](C(=O)N[C@H](C(=O)N(C)[C@H](/C=C(\C)C(=O)O)C(C)C)C(C)(C)C)C(C)(C)c1cccs1` [Example 21, N-Methyl-3-(2-thienyl)-D-valyl-N^1-[(1S,2E)-3-carboxy-1-isopropyl-2-butenyl]-N^1,3-dimethyl-L-valinamide] were, in that order, 74.4, 758 nM, 10.2 nM, 18.2 nM and 1.8.
On to `CN[C@H](C(=O)N[C@H](C(=O)N(C)[C@H](/C=C(\C)C(=O)O)C(C)C)C(C)(C)C)C(C)(C)Cc1ccccc1` [Example 48, N,3-Dimethyl-4-phenyl-L-valyl-N^1-[(1S,2E)-3-carboxy-1-isopropyl-2-butenyl]-N^1,3-dimethyl-L-valinamide], for which the “Ratio KBV1/KB” value with KB-V1 (MDR1++) was 81.0. Further, the IC50 in the assay on KB-V1 (MDR1++) (setting [1]) is 219 nM; with KB-3-1 it was 2.7 nM; in the assay with KB-8-5 (MDR1+), 6 nM. Besides, the “Ratio KB85/KB” value in the assay with KB-8-5 (MDR1+) was found to be 2.2.
Regarding `CCCCCCCCOC(=O)/C(C)=C/[C@H](C(C)C)N(C)C(=O)[C@@H](NC(=O)[C@@H](NC)C(C)(C)c1ccccc1)C(C)(C)C` [Example 116, N,β,β-trimethyl-L-phenylalanyl-N^1-[(1S,2E)-1-isopropyl-3-methyl-4-(octyloxy)-4-oxobut-2-enyl]-N^1,3-dimethyl-L-valinamide], the IC50 is more than 3000 nM in the assay on KB-V1 (MDR1++) (read-out: In vitro IC50 KBV1), 150 nM in the assay on KB-3-1 and 1630 nM in the assay on KB-8-5 (MDR1+). In addition, in the assay with KB-8-5 (MDR1+), the “Ratio KB85/KB” value amounted to 10.9.
As to `CCC(CC)(c1ccccc1)[C@H](NC)C(=O)N[C@H](C(=O)N(C)[C@H](/C=C(\C)C(=O)O)C(C)C)C(C)(C)C` [Example 125, β,β-diethyl-N-methyl-L-phenylalanyl-N^1-[(1S,2E)-3-carboxy-1-isopropylbut-2-enyl]-N^1,3-dimethyl-L-valinamide], the “Ratio KBV1/KB” value with KB-V1 (MDR1++) was 56.4. In addition, the IC50 came to 479 nM with KB-V1 (MDR1++) (setting [1]), 8.5 nM in the assay on KB-3-1 and 18 nM in the assay with KB-8-5 (MDR1+). Besides, in the assay on KB-8-5 (MDR1+), the “Ratio KB85/KB” value stood at 2.1.
Taken in the same sequence, the figures for `CCOC(=O)/C(C)=C/[C@H](C(C)C)N(C)C(=O)[C@@H](NC(=O)[C@@H](NC)C(C)(C)c1ccc(OC)cc1OC)C(C)(C)C` [Example 58, 2-Methoxy-N,O,β,β,tetramethyl-L-tyrosyl-N^1-[(1S,2E)-4-ethoxy-1-isopropyl-3-methyl-4-oxo-2-butenyl]-N^1,3-dimethyl-L-valinamide] were 20.8, not below 3000 nM, 144 nM, 1700 nM and 11.7.
The like results for `CN[C@H](C(=O)N[C@H](C(=O)N(C)[C@H](/C=C(\C)C(=O)O)CC(C)C)C(C)(C)C)C(C)(C)c1ccccc1` [Example 92, 4-{[3,3-Dimethyl-2-(3-methyl-2-methylamino-3-phenyl-butyrylamino)-butyryl]-methyl-amino}-2,6-dimethyl-hept-2-enoic Acid] were, in that order, 23.9, not below 3000 nM, 126 nM, 264 nM and 2.1.
The like results for `CN[C@@H](C(=O)N[C@H](C(=O)N(C)[C@H](/C=C(\C)C(=O)O)C(C)C)C(C)(C)C)C(C)(C)c1ccc(/C=C/c2ccccc2)cc1` [Example 147, N,β,β-trimethyl4-[(E)-2-phenylvinyl]-D-phenylalanyl-N^1-[(1S,2E)-3-carboxy-1-isopropylbut-2-enyl]-N^1,3-dimethyl-L-valinamide] were, in that order, 53.4, 620 nM, 11.6 nM, 20 nM and 1.7.
As to `CCOC(=O)/C(C)=C/[C@H](C(C)C)N(C)C(=O)[C@@H](NC(=O)[C@@H](NC)C(C)(C)c1ccc(OC)cc1)C(C)(C)C` [Example 56, N,O,β,β-tetramethyl-L-tyrosyl-N^1-[(1S,2E)-4-ethoxy-1-isopropyl-3-methyl-4-oxo-2-butenyl]-N^1,3-dimethyl-L-valinamide], the “Ratio KBV1/KB” value in the assay on KB-V1 (MDR1++) amounted to 67.6. In addition, the results for the half-inhibitory concentration (IC50) with KB-V1 (MDR1++) (setting [1]), in the assay with KB-3-1 and in the assay with KB-8-5 (MDR1+) were 1780 nM, 26.3 nM and 479 nM, respectively. Further, in the assay with KB-8-5 (MDR1+), the “Ratio KB85/KB” value amounted to 18.2.
`CN[C@H](C(=O)N[C@H](C(=O)N(C)[C@H](/C=C(\C)C(=O)O)C(C)C)C(C)(C)C)C(C)(C)c1cc(C(F)(F)F)cc(C(F)(F)F)c1` [Example 66, N,β,β-trimethyl-3,5-bis(trifluoromethyl)-L-phenylalanyl-N^1-[(1S,2E)-3-carboxy-1-isopropylbut-2-enyl]-N^1,3-dimethyl-L-valinamide]: in the assay with KB-V1 (MDR1++), the “Ratio KBV1/KB” value came out at 26.9. Also, the half-inhibitory concentration (IC50) was found to be 457 nM in the assay with KB-V1 (MDR1++) (setting [1]), 17 nM in the assay with KB-3-1 and 19 nM with KB-8-5 (MDR1+). The “Ratio KB85/KB” value in the assay with KB-8-5 (MDR1+) is on record as 1.1.
For `C=CC[C@@H](/C=C(\C)C(=O)O)N(C)C(=O)[C@@H](NC(=O)[C@@H](NC)C(C)(C)c1ccccc1)C(C)(C)C` [Example 119, N,β,β-trimethyl-L-phenylalanyl-N^1-[(1S,2E)-1-allyl-3-carboxybut-2-enyl]-N^1,3-dimethyl-L-valinamide], the 50% inhibitory concentration (IC50) in the assay with KB-V1 (MDR1++) (read-out: In vitro IC50 KBV1) was more than 3000 nM; with KB-3-1, 55 nM; with KB-8-5 (MDR1+), 164 nM. In the assay on KB-8-5 (MDR1+), the “Ratio KB85/KB” value was determined as 3.0.
`CN[C@H](C(=O)N[C@H](C(=O)N(C)[C@H](/C=C(\C)C(=O)NCCc1ccccc1)C(C)C)C(C)(C)C)C(C)(C)c1ccccc1` [Example 112, N,β,β-trimethyl-L-phenylalanyl-N^1-{(1S,2E)-1-isopropyl-3-methyl4-oxo4-[(2-phenylethyl)amino]but-2-enyl}-N^1,3-dimethyl-L-valinamide]: the “Ratio KBV1/KB” value in the assay with KB-V1 (MDR1++) was 10.8. For the same compound, the figures for the 50% inhibitory concentration (IC50) with KB-V1 (MDR1++) (setting [1]), in the assay with KB-3-1 and with KB-8-5 (MDR1+) were 1770 nM, 163 nM and 226 nM, respectively. For the same compound, in the assay on KB-8-5 (MDR1+), the “Ratio KB85/KB” value was 1.4.

The record behind these values is US20040121965A1, “Method of treating resistant tumors” (Wyeth Holdings Corporation, priority 2002, published 2004).
